Data on 68 compounds can be found in ChEMBL document CHEMBL3507680, “University of Dundee, Gates Library screen for HepG2 cell viability”.

The nature of the series: Human HepG2 cell viability assay in 384 well format. Further details: dose 125 nL, time 70.5 hour; concentration not given beside the values. The following applies: HepG2 cells, read-out: Inhibition. It is filed as toxicity, cell-based.

As for `Cc1ccc(CN2C[C@H](OCC3CCN(C)CC3)[C@H]3COC[C@H]32)o1`, the cytotoxicity at 70.5 h is 4.22%.
As for `CCN(C(=O)c1nc2c(s1)CCCN2C)C(C)C`, the cytotoxicity at 70.5 h was -1.08%.
As for `Cc1cccc(N2CC[C@H]3CO[C@H](CN(C)Cc4ccco4)[C@H]3C2)n1`, the cytotoxicity at 70.5 h is -2.06%.
Take `Cc1cccc(S(=O)(=O)N2C[C@@H]3C[C@@H](c4nnc(C)[nH]4)O[C@@H]3C2)c1`: the cytotoxicity at 70.5 h is -1.93%.
On to `CN(C)Cc1cncc2c1CCN(CC(=O)N(C)C)C2`, for which the cytotoxicity at 70.5 h stood at 10.2%.
As for `CCc1cnc(N2C[C@@H]3[C@@H](C(=O)N(C)C)CCS(=O)(=O)[C@@H]3C2)nc1`, the cytotoxicity at 70.5 h was -7.5%.
On to `CC(C)CNC(=O)[C@H]1CCS(=O)(=O)[C@@H]2CN(c3ncccn3)C[C@H]12`, for which the cytotoxicity at 70.5 h is -10.6%.
The result for `CC(=O)N(C)Cc1ncn2c1CN(C(=O)C1CCCO1)CCC2` (stereo not drawn) reads -5.86%.
Regarding `CC(=O)N(C)Cc1ncn2c1CN(C(=O)CC1CC1)CCC2`, the cytotoxicity at 70.5 h is -9.44%.
To `O=C([C@@H]1CCS(=O)(=O)[C@@H]2CN(c3ncccn3)C[C@@H]21)N1CCOCC1` belongs -1.98%; to `Cc1nc(N2CCCC2)nc2c1CCN(C(=O)c1ccoc1C)CC2`, 1.32%.
For `Cc1cc(C(=O)N2CCc3nc(N4CCCC4)nc(C)c3CC2)c(C)o1`, the cytotoxicity at 70.5 h is -7.18%.
Consider `CN(C)CC(=O)N1CCc2sc(C(=O)N3CCOCC3)cc21`, for which the cytotoxicity at 70.5 h is -0.909%.
Regarding `CN(C)CC(=O)N1CCc2sc(C(=O)N3CCN(C)CC3)cc21`, the cytotoxicity at 70.5 h was -2.73%.
As to `c1cc(CN2CC[C@@H]3CN(c4cncnc4)C[C@@H]3C2)ccn1`, the cytotoxicity at 70.5 h was -6.08%.
In the case of `O=C1N(c2ccsc2)CCC12CCCN(c1ccccn1)C2` (stereo not drawn), the cytotoxicity at 70.5 h was 5.29%.
The result for `CCc1ncnc2c1CCN(S(=O)(=O)CC)CC2` reads -7.89%; that for `Cc1nc(CN2C[C@@H]3CN(C(=O)c4ccncc4)C[C@@H]3C2)cs1`, -9.65%; that for `O=C(NCC1CC1)C1CN(C(=O)NC2CCCC2)Cc2cncn2C1` (stereo not drawn), -6.07%.
For the compound `CCOCC(=O)N1CCC2(CC1)CC(c1ccccc1)CO2` (stereo not drawn), the cytotoxicity at 70.5 h was -2.96%.
In the case of `CCN(CC)Cc1cc(=O)n2c(n1)CN(C(=O)c1ccc[nH]1)CCC2`, the cytotoxicity at 70.5 h is -4.87%.
With `COCC1CN(S(=O)(=O)c2cccc(F)c2)Cc2nccn2C1` (stereo not drawn), the cytotoxicity at 70.5 h is -7.05%.
For the compound `O=c1cc(CN2CCCC2)nc2n1CCCN(CC1CC1)C2`, the cytotoxicity at 70.5 h is 20.8%.
`CC(C)n1c2ccccc2c2c1cc(C(=O)N(C)C)n2C`: the cytotoxicity at 70.5 h was determined as 16.4%.
For the compound `CC(C)n1c2ccccc2c2c1cc(C(=O)O)n2C(=O)N(C)C`, the cytotoxicity at 70.5 h is -2.89%.
As to `CC(=O)N1CCC2(CCN(CC3CCOC3)C2)CC1` (stereo not drawn), the cytotoxicity at 70.5 h is -1.33%.
As for `O=C([C@@H]1CCCO1)N1CCOCC2(CCN(Cc3cccnc3)C2)C1` (stereo partly drawn), the cytotoxicity at 70.5 h was 0.333%.
As for `CC(C)[C@H]1CN(Cc2nccn2C)C[C@@H]1NC(=O)CCS(C)(=O)=O`, the cytotoxicity at 70.5 h was -5.68%.
As for `CCc1cc(N(C)Cc2ccnc(C)c2)n2nc(C)c(C)c2n1`, the cytotoxicity at 70.5 h came to 40.9%.
To `O=C(CSCC1CC1)N1CCC2(CCCN(C3CCOCC3)C2=O)C1` (stereo not drawn) belongs -6.7%.
Consider `OCC1(Cc2ccccc2F)CCCN(c2ccc3ccccc3n2)C1` (stereo not drawn), for which the cytotoxicity at 70.5 h is -1.23%.
The result for `CC(C)c1cc(NC(CO)CO)n2nccc2n1` reads -10.2%.
To `COc1ccc(C2(C(=O)N3CC[C@@]4(O)CCNC[C@H]4C3)CCCC2)cc1` belongs 17.8%.
For `CCN(Cc1nccs1)Cc1cc(Cl)ccc1OC`, the cytotoxicity at 70.5 h turned out to be 2.82%.
For the compound `Cn1cc(C(=O)NCc2cncc3c2CCNC3)cn1`, the cytotoxicity at 70.5 h came out at 23.2%.
On to `CC(C)N(C)Cc1cncc2c1CCN(Cc1cccs1)C2`, for which the cytotoxicity at 70.5 h is -3.46%.
With `COCCN1CCOCC2(C1)CN(C(=O)c1conc1C)CCO2` (stereo not drawn), the cytotoxicity at 70.5 h is -1.78%.
To `CCN1C(=O)CCCC12CCCN(C(=O)c1ccncc1F)C2` (stereo not drawn) belongs -2.27%.
The result for `c1cnc(N2CC[C@@H](OCC3CC3)[C@@H]2Cc2cccnc2)nc1` reads -4.73%; that for `Cn1ccc(C(=O)N2CCOC3(COCCN(CC4CC4)C3)C2)n1` (stereo not drawn), -3.98%; that for `CCOC(=O)[C@]12CCCN(Cc3ccco3)C[C@H]1CN(S(C)(=O)=O)C2`, -4.24%.
As to `CC1c2ncc(Cn3cccn3)n2CCN1S(C)(=O)=O` (stereo not drawn), the cytotoxicity at 70.5 h was found to be 19.8%.
On to `O=S(=O)(c1cccs1)N1Cc2nc(CN3CCCC3)oc2C1`, for which the cytotoxicity at 70.5 h was -6.48%.
For `CCN(CC)Cc1nc2c(o1)CN(S(=O)(=O)c1cccs1)C2`, the cytotoxicity at 70.5 h was -10.4%.
To `N#Cc1ccc(N2CCCC3(CCC(=O)N3CC3CC3)CC2)nc1` (stereo not drawn) belongs -0.642%; to `O=C(NCc1cc(=O)n2c(n1)CN(CC1CC1)CCC2)c1ccsc1`, 17.3%.
For the compound `O=C(C1CCOC1)N1C[C@H]2CN(Cc3cccnc3)C(=O)[C@H]2C1` (stereo partly drawn), the cytotoxicity at 70.5 h was 11.7%.
With `Cc1nc(N2CCCC2)nc2c1CCN(Cc1nccn1C)CC2`, the cytotoxicity at 70.5 h is -10.2%.
With `Cc1cc(CN2CCC3(CC2)COC(COCC2CC2)C3)no1` (stereo not drawn), the cytotoxicity at 70.5 h was -9.77%.
On to `COCCN1CCCn2c(nc(CNS(C)(=O)=O)cc2=O)C1`, for which the cytotoxicity at 70.5 h is -6.97%.
On to `COCCN1CCC(c2nc3ccc(NC4CCC4)cn3n2)CC1`, for which the cytotoxicity at 70.5 h is 0.236%.
Regarding `O=C(Cc1ccncc1)N1CCC2(CC1)CC(c1ccccc1)CO2` (stereo not drawn), the cytotoxicity at 70.5 h is 19.4%.
The result for `CCS(=O)(=O)N1CCC2(CC1)CN(CC1CCOC1)c1ccccc12` (stereo not drawn) reads 26%.
For `c1ccc2c(c1)N(CC1CCOC1)CC21CCN(c2cnccn2)CC1` (stereo not drawn), the cytotoxicity at 70.5 h was -0.723%.
As for `Cc1noc(C)c1CN1CCc2ncnc(-c3cnn(C)c3)c2CC1`, the cytotoxicity at 70.5 h was -8.16%.
To `c1cncc(OC[C@@]23CCC[C@@H]2CN(C2CCOCC2)C3)c1` belongs -1.53%.
Take `CCN(CC)Cc1cn2c(n1)CN(Cc1c(C)noc1C)CC2`: the cytotoxicity at 70.5 h turned out to be 0.0103%.
The result for `Cc1noc(C)c1CN1CCn2cc(CN3CCCC3)nc2C1` reads -4.15%.
To `Cn1cc(CN2CCc3ccc(=O)n(Cc4ccncc4)c3CC2)cn1` belongs -7%.
Take `CN(C)CCN1C(=O)CCCC12CCCN(C(=O)c1ccncc1)C2` (stereo not drawn): the cytotoxicity at 70.5 h was -3.49%.
The result for `c1cncc(OC[C@]23COC[C@H]2CN(C2CCC2)C3)c1` reads -1.17%; that for `N#Cc1ccc(N2CCC3(CCC(=O)N3Cc3cccnc3)CC2)nc1`, -5.74%; that for `N#Cc1ccc(N2CCC3(CCC(=O)N3Cc3ccncc3)CC2)nc1`, -6.82%.
In the case of `CC(C)N1CCC2(CC1)C(=O)N(CCN(C)C)c1ccccc12`, the cytotoxicity at 70.5 h is -6.47%.
Consider `COCCN1CCO[C@H]2CN(Cc3cc[nH]n3)C[C@H]21`, for which the cytotoxicity at 70.5 h was -7.3%.
As to `COCCN1CCN(c2cccc(C)n2)Cc2ccc(C)nc21`, the cytotoxicity at 70.5 h is 2.66%.
Regarding `Cc1nc(CN2C[C@@H]3CN(C(=O)Cc4ccccn4)C[C@@H]3C2)cs1`, the cytotoxicity at 70.5 h was -4.03%.
Take `Cn1nccc1-c1nnn2c1COCC(CNCC1CC1)C2` (stereo not drawn): the cytotoxicity at 70.5 h is -2.84%.
